Consider seven compounds from article doi:10.1101/839787v1 (bioRxiv, 2019).

Where a SMILES comes first, the peptide text is derived from it. Bridges are numbered along the chain shown (N, C = ends). Where no end group is shown, it is not given here.

The test system of series [1] is Raw 264 macrophages. Kind of series: Inflammatory response in vitro: LPS-activated macrophages. The series is classed as cell-based, murine. The following applies: 100 nmol/L peptide.
A short description of series [2]: In vitro stability of peptides in human plasma. Particulars: for main metabolite / main degradation product: Mass Spectrometry. The series is classed as in vitro ADME.
For series [3], the system named is TNBS-induced acute colitis. Briefly: TNBS-induced acute colitis, curative regime. The following applies: TNBS 3 mg/mouse. The series is classed as in vivo, BALB/c mice.
The subject of series [4] is TNBS-induced acute colitis. Briefly: TNBS-induced acute colitis, protective regime. The series is classed as in vivo, BALB/c mice. The following applies: TNBS 3 mg/mouse, 0.4 mg/kg systemic, n=8.
Series [5] has as its system DSS-induced acute colitis. Kind of series: DSS-induced acute ulcerative colitis. The series is classed as in vivo, C57Bl/6 mice. The following applies: 5% DSS, i.p. days 1, 2, 3, day 8.
Series [6] can be described thus: Aqueous solubility. The series is classed as physicochemical. The following applies: aqueous buffer solution, observation in words.
Series [7] deals with DSS-induced chronic colitis. Kind of series: DSS-induced chronic. The series is classed as in vivo, C57Bl/6 mice.
Series [8] concerns TNBS-induced chronic colitis. Kind of series: TNBS-induced chronic colitis. The series is classed as in vivo, Balb/c mice. The following applies: tolerance regime, treatment during first week only; n=8.

Turning to `Cc1cc(C)c(C[C@@H]2NC(=O)[C@H](Cc3ccccc3)NC(=O)[C@H](CC(N)=O)NC(=O)[C@H](CCCCN)NC(=O)[C@@H](NC(=O)[C@@H]3CCCN3)CSSC[C@@H](C(=O)N[C@@H](CCCCN)C(=O)O)NC(=O)[C@H](CO)NC(=O)[C@H]([C@@H](C)O)NC(=O)[C@H](Cc3ccccc3)NC(=O)[C@H]([C@@H](C)O)NC(=O)[C@H](CCCCN)NC(=O)[C@@H](Cc3c[nH]c4ccccc34)NC2=O)c(C)c1` [Analog 2], the “effect on production of TNFα, IL-6 and NO by activated macrophages” value in series [1] is on record as “no effect”.
The same measure, in the same setting: the same measure for `CCCCCCCC(=O)N1CCC[C@H]1C(=O)N[C@H]1CSSC[C@@H](C(=O)N[C@@H](CCCCN)C(=O)O)NC(=O)[C@H](CO)NC(=O)[C@H]([C@@H](C)O)NC(=O)[C@H](Cc2ccccc2)NC(=O)[C@H]([C@@H](C)O)NC(=O)[C@H](CCCCN)NC(=O)[C@@H](Cc2c[nH]c3ccccc23)NC(=O)[C@H](Cc2c(C)cc(C)cc2C)NC(=O)[C@H](Cc2ccccc2)NC(=O)[C@H](CC(N)=O)NC(=O)[C@H](CCCCN)NC1=O` [Analog 3]: “no effect”; for `Cc1cc(C)c(C[C@@H]2NC(=O)[C@H](CC(N)=O)NC(=O)[C@H](CCCCN)NC(=O)[C@@H](NC(=O)[C@@H]3CCCN3)CSSC[C@@H](C(=O)N[C@@H](CCCCN)C(=O)O)NC(=O)[C@H](CO)NC(=O)[C@H]([C@@H](C)O)NC(=O)[C@H](Cc3ccccc3)NC(=O)[C@H]([C@@H](C)O)NC(=O)[C@H](CCCCN)NC(=O)[C@@H](Cc3c[nH]c4ccccc34)NC(=O)[C@H](Cc3ccccc3)NC2=O)c(C)c1` [Analog 4, [L-Msa5_D-Trp7_L-Thr11]-CST14]: “no effect”.
As for `CCCCCCCC(=O)N1CCC[C@H]1C(=O)N[C@H]1CSSC[C@@H](C(=O)N[C@@H](CCCCN)C(=O)O)NC(=O)[C@H](CO)NC(=O)[C@H]([C@@H](C)O)NC(=O)[C@H](Cc2ccccc2)NC(=O)[C@H]([C@@H](C)O)NC(=O)[C@H](CCCCN)NC(=O)[C@@H](Cc2c[nH]c3ccccc23)NC(=O)[C@H](Cc2ccccc2)NC(=O)[C@H](Cc2c(C)cc(C)cc2C)NC(=O)[C@H](CC(N)=O)NC(=O)[C@H](CCCCN)NC1=O` [Analog 5], the “main metabolite / main degradation product” value in series [2] is given as “peptide 6”. Also, in series [2] (from half-lives in serum), the “increase of stability in serum with respect to the native neuropeptide” value is recorded as “ten-fold”. Further, the “effect on clinical signs and survival” value in series [3] (curative regime days 3, 4, 5, i.p. or s.c. 0.4 mg/kg, n=8) is “significantly effective”. In series [3] (curative regime, oral), the “effectiveness of oral administration versus i.p. and s.c.” value is “less effective”. Also, the “protection from body weight loss, bloody diarrhea and mortality” value in series [4] is “significantly protected”. Besides, the Colon length worked out at 8.65 cm in series [5] (mean of n=8); 8.7 cm in series [5] (mouse 2); 9.3 cm in series [5] (mouse 3); 7.8 cm in series [5] (mouse 4); 9.2 cm in series [5] (mouse 5); 8.4 cm in series [5] (mouse 6). Moreover, the Colon length in series [5] (mouse 7) is 8.6 cm; in series [5] (mouse 8) it was 8.1 cm. Moreover, the Colon weight in series [5] (mean of n=8) was 625 mg; in series [5] (mouse 1), 624 mg; in series [5] (mouse 2), 631 mg; in series [5] (mouse 3), 581 mg; in series [5] (mouse 4), 662 mg; in series [5] (mouse 5), 611 mg. For the same compound, the Colon weight in series [5] (mouse 6) is on record as 597 mg; in series [5] (mouse 7) it was 624 mg; in series [5] (mouse 8) it was 677 mg. Also, the “Macroscopic score for colon (0-8)” value in series [5] (mean of n=8) is on record as 1; in series [5] (mouse 1), 1; in series [5] (mouse 2) it was 1; in series [5] (mouse 3) it was 0; in series [5] (mouse 4) it was 2; in series [5] (mouse 5), 0. Besides, the “Macroscopic score for colon (0-8)” value in series [5] (mouse 6) turned out to be 1; in series [5] (mouse 7), 1; in series [5] (mouse 8), 2. Moreover, the aqueous solubility result in series [6] is given as “soluble”. The “effect on production of TNFα, IL-6 and NO by activated macrophages” value in series [1] was “strikingly reduced”. In addition, the “Lengths (cm) for colons at day 25 after initiation of DSS treatment” value (from here on “Lengths (cm) for colons”) is on record as 8.24 cm in series [7] (Group 3: DSS+A5 one cycle, mean of 8 mice); 8.15 cm in series [7] (Group 3: DSS+A5 one cycle, mouse 1); 8.78 cm in series [7] (Group 3: DSS+A5 one cycle, mouse 2); 7.86 cm in series [7] (Group 3: DSS+A5 one cycle, mouse 3); 8.77 cm in series [7] (Group 3: DSS+A5 one cycle, mouse 5); 7.24 cm in series [7] (Group 3: DSS+A5 one cycle, mouse 6). Besides, the “Lengths (cm) for colons” value is listed as 7.02 cm in series [7] (Group 3: DSS+A5 one cycle, mouse 7); 9.14 cm in series [7] (Group 3: DSS+A5 one cycle, mouse 8); 9.64 cm in series [7] (Group 4: DSS+A5 two cycles, mean of 8 mice); 9.85 cm in series [7] (Group 4: DSS+A5 two cycles, mouse 3); 9.34 cm in series [7] (Group 4: DSS+A5 two cycles, mouse 5); 9.61 cm in series [7] (Group 4: DSS+A5 two cycles, mouse 7). Also, the “Lengths (cm) for colons” value in series [7] (Group 4: DSS+A5 two cycles, mouse 8) turned out to be 9.15 cm. In addition, the “protection from subsequent expositions to TNBS, tolerance effect” value in series [8] is recorded as “significantly protected”.
Consider `C[C@@H](O)[C@@H]1NC(=O)[C@H](CCCCN)NC(=O)[C@H](Cc2c[nH]c3ccccc23)NC(=O)[C@H](Cc2ccccc2)NC(=O)[C@H](Cc2ccccc2)NC(=O)[C@H](CC(N)=O)NC(=O)[C@H](CCCCN)NC(=O)[C@@H](NC(=O)[C@@H]2CCCN2)CSSC[C@@H](C(=O)N[C@@H](CCCCN)C(=O)O)NC(=O)[C@H](CO)NC(=O)[C@H](CO)NC(=O)[C@H](Cc2ccccc2)NC1=O` [Cortistatin, Cortistatin-14, reference compound] (H-PCKNFFWKTFSSCK-OH; disulfide 2-13), for which the “main metabolite / main degradation product” value in series [2] is “deletion of L-Lys14”.
Take `Nc1ccc(O)c(C(=O)O)c1` [mesalazine, 5-aminosalycilic acid, reference compound]: the “protection from subsequent expositions to TNBS, tolerance effect” value in series [8] is “fully or partially failed”.
As to “Cortistatin-29 (QEGAPPQQSARRDRMPCRNFFWKTFSSCK; disulfide 17-28 (inferred); ends not checked; UniProt O00230 77-105, looked up)”, the Colon length in series [5] (mean of n=8) was found to be 9.08 cm; in series [5] (mouse 1), 8.9 cm; in series [5] (mouse 2), 9.1 cm; in series [5] (mouse 3) it was 9.5 cm; in series [5] (mouse 4), 8.4 cm; in series [5] (mouse 5) it was 9.2 cm. Also, the results for the Colon length in series [5] (mouse 6), in series [5] (mouse 7) and in series [5] (mouse 8) were 8.9 cm, 9.6 cm and 9.1 cm, respectively. Also, the Colon weight in series [5] (mean of n=8) turned out to be 621 mg; in series [5] (mouse 1), 622 mg; in series [5] (mouse 2) it was 634 mg; in series [5] (mouse 3), 578 mg; in series [5] (mouse 4), 655 mg; in series [5] (mouse 5), 607 mg. The results for the Colon weight in series [5] (mouse 6), in series [5] (mouse 7) and in series [5] (mouse 8) were 632 mg, 612 mg and 635 mg, respectively. For the same compound, the “Macroscopic score for colon (0-8)” value is on record as 0.87 in series [5] (mean of n=8); 1 in series [5] (mouse 1); 1 in series [5] (mouse 2); 0 in series [5] (mouse 3); 2 in series [5] (mouse 4); 1 in series [5] (mouse 5). Further, the “Macroscopic score for colon (0-8)” value came to 1 in series [5] (mouse 6), 0 in series [5] (mouse 7) and 1 in series [5] (mouse 8).
